# Experimental data reported in patent publication US20120107391A1, “THERAPY OF PLATINUM-RESISTANT CANCER” (Genentech, Inc., priority 2004, published 2012).
# Structures can show the parent of a compound that is named as a salt.
# Columns and labels:
# [1] = test system: mitogen-activated protein kinase (MAPK) activation in MCF7 cells; test: EGF, TGF-α or HRG mediated activation of MAPK in MCF7 cells (Western blot); type: cell-based, human; conditions: 200 nM antibody, 1 nM EGF, 1 nM TGF-α or 0.2 nM HRG
# Procedure: Many growth factor receptors signal through the mitogen-activated protein kinase (MAPK) pathway. These dual specificity kinases are one of the key endpoints in signal transduction pathways that ultimately triggers cancer cells to divide. […] MCF7 cells (10^5 cells/well) were plated in serum containing media in 12-well cell culture plates. The next day, the cell media was removed and fresh media containing 0.1% serum was added to each well. This procedure was then repeated the following day and prior to assay the media was replaced with serum-free binding buffer (Jones et al. J. Biol. Chem. 273:11667-74 (1998); and Schaefer et al. J. Biol. Chem. 274:859-66 (1999)). […] Cells were then treated with 1 nM EGF, 1 nM TGF-α or 0.2 nM HRG for 15 minutes. The reaction was stopped by aspirating the cell medium and then adding 0.2 mL SDS-PAGE sample buffer containing 1% DTT. MAPK activation was assessed by Western blotting using an anti-active MAPK antibody (Promega) as described previously (Jones et al. J. Biol. Chem. 273:11667-74 (1998)).
# [2] = test system: HRG stimulation of p180 tyrosine phosphorylation in MCF7 cells; test: Inhibition of HRG-stimulated p180 tyrosine phosphorylation in MCF7 cells (antiphosphotyrosine immunoblot, reflectance densitometry); type: cell-based, human; conditions: MCF7, 0.2 nM rHRGβ1
# Procedure: MCF7 cells were seeded in 24-well plates (1×10^5 cells/well) and grown to about 85% confluency for two days.
# MCF7 cells were plated in 24-well plates and monoclonal antibodies to HER2 were added to each well and incubated for 30 minutes at room temperature; then rHRGβ1177-244 was added to each well to a final concentration of 0.2 nM, and the incubation was continued for 8 minutes. Media was carefully aspirated from each well, and reactions were stopped by the addition of 100 μl of SDS sample buffer (5% SDS, 25 mM DTT, and 25 mM Tris-HCl, pH 6.8). Each sample (25 μl) was electrophoresed on a 4-12% gradient gel (Novex) and then electrophoretically transferred to polyvinylidene difluoride membrane. Antiphosphotyrosine (4G10, from UBI, used at 1 μg/ml) immunoblots were developed, and the intensity of the predominant reactive band at Mr ˜180,000 was quantified by reflectance densitometry, as described previously (Holmes et al. Science 256:1205-1210 (1992); Sliwkowski et al. J. Biol. Chem. 269:14661-14665 (1994)).
# [3] = test system: Akt activation in MCF7 breast cancer cells; conditions: cited from earlier work
# SK-BR-3 cells = test: Growth inhibition of SK-BR-3 cells, crystal violet staining, 4 days, with or without rHRGβ1; type: cell-based, human; conditions: FIG. 4B
# MDA-MB-175 cells = test: Growth inhibition of MDA-MB-175 cells, crystal violet staining, 4 days; type: cell-based; conditions: 10 μg/mL
# Procedure: Experiment was carried out in medium containing 1% serum. HER2 antibodies or medium alone were added and the cells were incubated for 2 hours at 37° C. Subsequently rHRGβ1 (1 nM) or medium alone were added and the cells were incubated for 4 days. Monolayers were washed and stained/fixed with 0.5% crystal violet. To determine cell proliferation the absorbance was measured at 540 nm.
# HER2 levels in MDA-MB-175 cells are 4-6 times higher than the level found in normal breast epithelial cells and the HER2-HER4 receptor is constitutively tyrosine phosphorylated in MDA-MB-175 cells. […] Inhibition of cell proliferation by 4D5 is dependent on the HER2 expression level (Lewis et al. Cancer Immunol. Immunother. 37:255-263 (1993)). […] However this effect could be overcome by exogenous HRG.
# [4] = test system: platinum-resistant ovarian cancer; conditions: patients with platinum-resistant disease; cited from earlier work
# [5] = cited from earlier work
# advanced ovarian cancer = conditions: one of 3 subjects with advanced ovarian cancer; cited from earlier work
compound,measurement,setting,value
"2C4: Murine monoclonal antibody binding the extracellular domain of HER2, ATCC HB-12697 [Mutant 2C4]","block of EGF, TGF-α and HRG mediated activation of MAPK",[1],significantly blocks
same,"generation of HRG-induced tyrosine phosphorylation signal at Mr 180,000",[2],significantly inhibited
same,basal level of Akt activation,"[3]; MCF7, absence of heregulin addition",further reduced
same,heregulin-mediated Akt activation,"[3]; MCF7, Agus et al. 2002",inhibits
same,inhibitory effect on HER2 overexpressing cell line SK-BR-3,SK-BR-3 cells,no inhibitory effect
same,growth inhibitory effect on MDA-MB-175 cells,MDA-MB-175 cells,strong growth inhibitory effect
"Nc1ccn([C@@H]2O[C@H](CO)[C@@H](O)C2(F)F)c(=O)n1 [Gemcitabine, 2′-deoxy-2′,2′-difluorocytidine monohydrochloride (b-isomer)]",partial response rate,[4],16%
same,toxicity when combined with other chemotherapeutic agents,"[5]; combined with taxanes, anthracyclines, platinums",without any significant increases or unexpected toxicities
same,combined incidence of nausea and vomiting,[5]; single agent,69%
same,incidence of anemia,[5]; single agent,68%
same,incidence of diarrhea,[5]; single agent,19%
same,incidence of neutropenia,[5]; single agent,63%
same,incidence of rash,[5]; single agent,30%
same,"nausea and vomiting, grade III incidence",[5]; single agent,13%
same,"nausea and vomiting, grade IV incidence",[5]; single agent,1%
same,"rash, grade III incidence",[5]; single agent,1%
Pertuzumab: Antibody with light and heavy chain SEQ ID NOS. 16 and 17; humanized version 574 variable domains with human IgG1 constant region,response,advanced ovarian cancer,durable partial response
CC[C@@]1(O)C(=O)OCc2c1cc1n(c2=O)Cc2cc3c(CN(C)C)c(O)ccc3nc2-1 [Topotecan],partial response rate,[4],6%
